Test results reported in US20160160267A1, “COMPOSITION FOR EVALUATING OR PREDICTING PATIENTS THERAPEUTIC RESPONSE TO METHORMIN” (SNU R&DB FOUNDATION, priority 2013, published 2016).

Columns and labels:
[1] = test system: G6Pase (Glucose 6-phosphatase); experiment: Expression of G6Pase in liver, quantitative PCR relative to GAPDH; format: in vivo, mouse (C57BL/6); details: male, metformin during high-fat diet
Experimental: (§1) FIG. 4a to FIG. 5b comparatively analyze the amount of gene expression of internal control GAPDH and biomarkers using relative quantification method (2^−ΔΔCt(ΔΔCt=(Ct.Target−Ct.GAPDH)Group1−(Ct.Target−Ct.GAPDH)Group2)). Statistical significance is assessed by Mann-Whitney U Test. For quantification, SYBR qPCR was repeatedly conduced three times.
(§2) Basically, body weight and fasting glucose were confirmed once a week. To confirm impaired glucose tolerance, oral glucose tolerance test (OGTT) was conducted. And, total cholesterol, high-density lipoprotein (HDL), low-density lipoprotein (LDL) were analyzed in serum, and insulin concentration in blood was measured using flow cytometry. To grasp the expression degree of metabolic and inflammatory factors, liver, epididymal adipose tissue, small intestine were homogenized to extract total RNA, which was quantitatively analyzed by polymerase chain reaction (PCR). In the liver, AMPKα1 (AMP-activated protein kinase alpha 1), PPARα (Peroxisome proliferator-activated eceptor alpha), GLUT2 (Glucose transporter 2), G6Pase (Glucose 6-phosphatase) were measured; in the adipose tissue, adiponectin, leptin, MCP-1 (Monocyte chemoattractant protein-1), TNFα (Tumor necrosis factor alpha) IL-6 (Interleukin-6) were measured; and in the small intestine, MUC2 and MUC5 (Mucin genes) were measured. […]

leptin = experiment: Expression of leptin in epididymal adipose tissue, quantitative PCR relative to GAPDH; format: in vivo, mouse (C57BL/6); details: male, metformin during high-fat diet, P=0.004
Experimental: as §1, §2

[2] = Metabolism-related index (body weight, fasting glucose, serum total cholesterol, HDL) in high-fat diet mouse; format: in vivo, mouse (C57BL/6); details: high-fat diet mice
Experimental: Basically, body weight and fasting glucose were confirmed once a week. To confirm impaired glucose tolerance, oral glucose tolerance test (OGTT) was conducted. And, total cholesterol, high-density lipoprotein (HDL), low-density lipoprotein (LDL) were analyzed in serum, and insulin concentration in blood was measured using flow cytometry. To grasp the expression degree of metabolic and inflammatory factors, liver, epididymal adipose tissue, small intestine were homogenized to extract total RNA, which was quantitatively analyzed by polymerase chain reaction (PCR). In the liver, AMPKα1 (AMP-activated protein kinase alpha 1), PPARα (Peroxisome proliferator-activated eceptor alpha), GLUT2 (Glucose transporter 2), G6Pase (Glucose 6-phosphatase) were measured; in the adipose tissue, adiponectin, leptin, MCP-1 (Monocyte chemoattractant protein-1), TNFα (Tumor necrosis factor alpha) IL-6 (Interleukin-6) were measured; and in the small intestine, MUC2 and MUC5 (Mucin genes) were measured. For comparative analysis of the expression degree, relative quantification using housekeeping gene GAPDH was applied, and statistical significance was confirmed with Mann-Whitney U test. As the primer for MUC5AC, QuantiTect® Primer Assay (Cat. no.: QT01161104, Qiagen) was used.

PPARα = experiment: Expression of PPARα in liver, quantitative PCR relative to GAPDH; format: in vivo, mouse (C57BL/6); details: female, metformin during high-fat diet, P=0.008
Experimental: as §1, §2

MUC2 = experiment: Expression of mucin gene MUC2 in small intestine; format: in vivo, mouse (C57BL/6); details: female, after administration of metformin
Experimental: as §1, §2

[3] = test system: MCP-1 (Monocyte chemoattractant protein-1); experiment: Expression of MCP-1 in epididymal adipose tissue, quantitative PCR relative to GAPDH; format: in vivo, mouse (C57BL/6); details: male, metformin during high-fat diet, P=0.008
Experimental: as §1, §2

[4] = test system: rumen microorganism communities; experiment: Analysis of rumen microbiome in feces samples (16S rRNA V2-V3 pyrosequencing, UniFrac, PCoA, LEfSe); format: in vivo, mouse (C57BL/6)
Experimental: Total genome DNA of bacteria in the feces sample was extracted using a kit. The V2 region and the V3 region of 16S rRNA gene were amplified through PCR using bar coded universal primer as described in Table 3 and Table 4, and pyrosequencing was conducted using GS-FLX system. For the secured nucleotide sequence, data was analyzed using QIIME (Quantitative Insights Into Microbial Ecology) 1.5.0 (http://qiime.sourceforge.net). Before the sequence analysis, noise removal of the sequence data set was conducted, and low quality sequence less than 200 bp was removed. To the nucleotide sequence, OUT (Operational taxonomic units) was assigned based on 97% analogous level to conduct system analysis. For the nucleotide sequence obtained from each feces sample, UniFrac, PCoA (Principal Coordinate Analysis), LEfSe (LDA Effect Size) analysis were conducted for comparative analysis. And, based on the KEGG (Kyoto Encyclopedia of Genes and Genomes) pathway data from microbiome, PICRUSt (Phylogenetic Investigation of Communities by Reconstruction of Unobserved States) was conducted to predict a specifically increasing metabolic pathway.

[5] = test system: TNFα (Tumor necrosis factor alpha); experiment: Expression of TNFα in epididymal adipose tissue, quantitative PCR relative to GAPDH; format: in vivo, mouse (C57BL/6); details: female, metformin during high-fat diet, P=0.001
Experimental: as §1, §2

MUC5 = experiment: Expression of mucin gene MUC5 in small intestine; format: in vivo, mouse (C57BL/6); details: female, after administration of metformin
Experimental: as §1, §2

[6] = test system: GLUT2 (Glucose transporter 2); experiment: Expression of GLUT2 in liver, quantitative PCR relative to GAPDH; format: in vivo, mouse (C57BL/6); details: female, metformin during high-fat diet, P=0.007
Experimental: as §1, §2

[7] = Tissue inspection (tissue weights, H&E staining, steatosis); details: metformin during high-fat diet, compared to high-fat diet group
From the text: Male and female C57BL/6 species of the same age of the week were purchased from Orientbio. […] Epididymis adipose tissue, liver, small intestine, pancreas, and blood were extracted, and among them, liver, small intestine, and pancreas were fixed to 4% paraformaldehyde to conduct hematoxylin and eosin (H&E) staining. Briefly, tissue was cut to 4 μm, stained with alum haematoxylin and rinsed with water flow. Thereafter, the colour was changed with 0.3% acid alcohol, followed by additional staining with eosin, dehydrating and fixing. The degree of steatosis and inflammation of the tissue was read by pathologist.

[8] = test system: AMPKα1 (AMP-activated protein kinase alpha 1); experiment: Expression of AMPKα1 in liver, quantitative PCR relative to GAPDH; format: in vivo, mouse (C57BL/6); details: female, metformin during high-fat diet, P=0.023
Experimental: as §1, §2

[9] = 10 weeks after metformin administration
[10] = after administration of metformin (300 mg/kg daily, oral)
[11] = after administration of metformin during high-fat diet

SMILES: CN(C)C(=N)NC(=N)N [metformin, N,N-Dimethylimidodicarbonimidic diamide]
- G6Pase expression in liver [1]: significantly decreased
- leptin expression in epididymal adipose tissue (leptin): increased
- high density lipoprotein (HDL) [2, 9]: significantly decreased
- total cholesterol [2, 9]: significantly decreased
- blood glucose (fasting glucose) [2, 10]: significantly decrease
- body weight [2, 10]: significantly decrease
- PPARα expression in liver (PPARα): increased
- expression degree of MUC2 in small intestine (MUC2): significantly increased
- MCP-1 expression in epididymal adipose tissue [3]: increased
- proportion of phylum Proteobacteria [4, 11]: 2.1±2.8%
- proportion of phylum Verrucomicrobia [4, 11]: 12.4±5.3%
- proportion of phylum Bacteroidetes ([4]; high-fat diet, after administration of metformin): 77.5±8.7%
- microbial diversity in feces ([4]; metformin administration during high-fat diet): decreased
- microbial diversity in feces ([4]; metformin administration during normal diet): did not cause any change in diversity
- Akkermansia abundance, at species level ([4]; metformin during high-fat diet): significantly increased
- Bacteroides abundance, at species level ([4]; metformin during high-fat diet): significantly increased
- relative bacterial abundance by LDA scores, genus Akkermansia ([4]; metformin during high-fat diet): increased
- relative bacterial abundance by LDA scores, genus Blautia ([4]; metformin during high-fat diet): increased
- relative bacterial abundance by LDA scores, genus Clostridium ([4]; metformin during high-fat diet): decreased
- relative bacterial abundance by LDA scores, genus Shigella ([4]; metformin during high-fat diet): increased
- UniFrac distance to the group treated with high-fat diet only ([4]; metformin during high-fat diet, versus difference of the diet-change group (HFD-ND) to HFD only): larger
- relative bacterial abundance, Alistipes ([4]; metformin during normal diet): increased
- relative bacterial abundance, Lactobacillus iners ([4]; metformin during normal diet): relatively decreased
- relative bacterial abundance, genus Akkermansia ([4]; metformin during normal diet): significantly increased
- relative bacterial abundance, genus Clostridium ([4]; metformin during normal diet): significantly increased
- TNFα expression in epididymal adipose tissue [5]: significantly decreased
- expression degree of MUC5 in small intestine (MUC5): significantly increased
- GLUT2 expression in liver [6]: decreased
- liver steatosis [7]: significant difference
- weight of adipose tissue [7]: significantly decreased
- weight of liver [7]: significantly decreased
- AMPKα expression in liver [8]: decreased
